Values of other authors as cited in patent publication US12571046B2, “Methods of detecting and treating multiple system atrophy” (THE TRANSLATIONAL GENOMICS RESEARCH INSTITUTE, priority 2020, dated 2026).

How the values were obtained:
[1] = tested on: conditional QKI knock-out mouse model; conditions: conditional QKI-KO mouse; PPARβ and RXR agonists; literature ref [82]/[96]
α-synuclein = α-synuclein (Homo sapiens, UniProt P37840); conditions: in vitro; interaction at N-terminus of α-synuclein; literature ref [65]

Row | effect on α-synuclein fibrillization (α-synuclein) | Compound | effect on QKI deficiency-induced demyelination [1]
1 | – | C=C(c1ccc(C(=O)O)cc1)c1cc2c(cc1C)C(C)(C)CCC2(C)C [bexarotene] | alleviate QKI deficiency-induced demyelination in the mouse
2 | – | C[C@@H]1CN(c2ccc(OC(F)(F)F)cc2)C[C@H](C)N1S(=O)(=O)c1cccc2c1C[C@@H](C(=O)O)C2.Cc1ccc(S(=O)(=O)O)cc1 [KD3010] | alleviate QKI deficiency-induced demyelination in the mouse
3 | delays α-synuclein fibrillization | Vitamin K | –
